Source: ChEMBL document CHEMBL3046544, “Inhibitory Activity of N-Substituted-2-piperidones with a 1, 4-Benzodioxan Ring on Germination of Barnyardgrass” (J Pestic Sci, 2001)

Key:
Echinochloa esculenta [1] = assay: Herbicidal activity against Echinochloa esculenta assessed as inhibition of seed germination at 1000 nM after 5 days relative to control; type: functional; settings: 120 h
Echinochloa esculenta [2] = assay: Herbicidal activity against Echinochloa esculenta assessed as inhibition of seed germination at 10 nM after 5 days relative to control; type: functional; settings: 120 h
Echinochloa esculenta [3] = assay: Herbicidal activity against Echinochloa esculenta assessed as inhibition of seed germination at 0.1 nM after 5 days relative to control; type: functional; settings: 120 h
Echinochloa esculenta [4] = assay: Herbicidal activity against Echinochloa esculenta assessed as inhibition of seed germination at 1 nM after 5 days relative to control; type: functional; settings: 120 h
Echinochloa esculenta [5] = assay: Herbicidal activity against Echinochloa esculenta assessed as inhibition of seed germination at 100 nM after 5 days relative to control; type: functional; settings: 120 h
Oryza sativa [6] = assay: Herbicidal activity against Oryza sativa (rice) assessed as inhibition of seed germination after 7 days relative to control; type: functional, organism-based; settings: 168 h
Echinochloa esculenta [7] = assay: Herbicidal activity against Echinochloa esculenta assessed as inhibition of seed germination after 5 days relative to control; type: functional, organism-based; settings: 120 h
Oryza sativa [8] = assay: Herbicidal activity against Oryza sativa (rice) assessed as inhibition of seed germination at > 90 nM after 7 days relative to control; type: functional, organism-based; settings: 168 h

Compound	inhibition at 1 µM (Echinochloa esculenta [1])	inhibition at 0.01 µM (Echinochloa esculenta [2])	inhibition at 0.0001 µM (Echinochloa esculenta [3])	inhibition at 0.001 µM (Echinochloa esculenta [4])	inhibition at 0.1 µM (Echinochloa esculenta [5])	IC50 (Oryza sativa [6])	IC50 (Echinochloa esculenta [7])	IC50 (Oryza sativa [8])
O=C1C(C(O)c2ccc3c(c2)OCCO3)CCCN1c1ccccc1 (mixture of isomers)	< 49%	< 49%	< 49%	< 49%	< 49%			
O=C1[C@@H]([C@@H](O)c2ccc3c(c2)OCCO3)CCCN1C/C=C/c1ccccc1 (relative stereo)						8.1 nM	0.8 nM	
O=C1[C@H]([C@@H](O)c2ccc3c(c2)OCCO3)CCCN1Cc1ccccc1 (relative stereo)						> 1000 nM	> 1000 nM	
O=C1[C@H]([C@@H](O)c2ccc3c(c2)OCCO3)CCCN1C/C=C/c1ccccc1 (relative stereo)						> 1000 nM	> 1000 nM	
O=C1C(C(O)c2ccc3c(c2)OCCO3)CCCN1Cc1ccccc1 (mixture of isomers)	> 90%	> 90%		< 49%	> 90%	> 90 nM	8.8 nM	10 nM
O=C1NCCCC1C(O)c1ccc2c(c1)OCCO2 (mixture of isomers)	> 90%	< 49%	< 49%	< 49%	< 49%			
O=C1C(C(O)c2ccc3c(c2)OCCO3)CCCN1CC=C(c1ccccc1)c1ccccc1 (mixture of isomers)	> 90%	> 90%	< 49%	< 49%	> 90%			
O=C1C(C(O)c2ccc3c(c2)OCCO3)CCCN1/C=C/c1ccccc1 (mixture of isomers)	> 90%	50%	< 49%	< 49%	> 90%			
O=C1[C@@H]([C@@H](O)c2ccc3c(c2)OCCO3)CCCN1Cc1ccccc1 (relative stereo)						> 90 nM	4.5 nM	30 nM
C=CCN1CCCC(C(O)c2ccc3c(c2)OCCO3)C1=O (mixture of isomers)	50%	< 49%	< 49%	< 49%	< 49%			
O=C1C(C(O)c2ccc3c(c2)OCCO3)CCCN1C/C=C/c1ccccc1 (mixture of isomers)	> 90%	> 90%	< 49%	< 49%	> 90%	> 90 nM	1.4 nM	25 nM
O=C1C(C(O)c2ccc3c(c2)OCCO3)CCN1C/C=C/c1ccccc1 (mixture of isomers)	> 90%	< 49%		< 49%	< 49%			
O=C1C(C(O)c2ccc(O)c(O)c2)CCCN1Cc1ccccc1 (mixture of isomers)	50%	< 49%		< 49%	< 49%			
COc1c(C(O)C2CCCN(Cc3ccccc3)C2=O)ccc2c1OCCO2 (mixture of isomers)	> 90%	< 49%		< 49%	< 49%			
